Experiments:
Homo sapiens [1] = organism: Homo sapiens; experiment: Inhibition of recombinant human BRSK2 S251I mutant (2 to end residues) assessed as residual activity at 1 uM using KKLNRTLSFAEPG substrate incubated for 40 mins in presence of [gamma-33ATP] by scintillation counting based radiometry assay relative to control
[2] = target: Tyrosine-protein kinase BTK (Homo sapiens) (UniProt Q06187); experiment: Inhibition of recombinant full length human BTK assessed as residual activity at 1 uM using KVEKIGEGTYGVV substrate incubated for 40 mins in presence of [gamma-33ATP] by scintillation counting based radiometry assay relative to control
[3] = target: CDK6/cyclin D3 (Homo sapiens) (UniProt P30281+Q00534); experiment: Inhibition of recombinant full length human CDK6/cyclinD3 assessed as residual activity at 1 uM using histone H1 as substrate incubated for 40 mins in presence of [gamma-33ATP] by scintillation counting based radiometry assay relative to control; assay type: protein-complex assay
[4] = target: CDK7/Cyclin H/MNAT1 (Homo sapiens) (UniProt P51946+P50613+P51948); experiment: Inhibition of recombinant full length human CDK7/cyclinH/MAT1 assessed as residual activity at 1 uM using peptide as substrate incubated for 40 mins in presence of [gamma-33ATP] by scintillation counting based radiometry assay relative to control; assay type: protein-complex assay
[5] = target: Cyclin-dependent kinase 13/Cyclin-K (Homo sapiens) (UniProt Q14004+O75909); experiment: Inhibition of recombinant full length human CDK13/cyclinK assessed as residual activity at 1 uM using RSRSRSRSRSRSRSR as substrate incubated for 120 mins in presence of [gamma-33ATP] by scintillation counting based radiometry assay relative to control; assay type: protein-complex assay
[6] = test system: Serine/threonine-protein kinase Chk2 (Homo sapiens), O96017 [R145W]; experiment: Inhibition of recombinant human CHK2 R145W mutant (5 to end residues) assessed as residual activity at 1 uM using KKKVSRSGLYRSPSMPENLNRPR as substrate incubated for 40 mins in presence of [gamma-33ATP] by scintillation counting based radiometry assay relative to control
[7] = target: Interleukin-1 receptor-associated kinase 1 (Homo sapiens) (UniProt P51617); experiment: Inhibition of human IRAK1 (194 to end residues) assessed as residual activity at 1 uM using myelin basic protein as substrate after 40 mins by [gamma-33ATP] radiometric assay relative to control
Interleukin-1 receptor-associated kinase 1 (Homo sapiens), sequence (P51617 whole entry, looked up): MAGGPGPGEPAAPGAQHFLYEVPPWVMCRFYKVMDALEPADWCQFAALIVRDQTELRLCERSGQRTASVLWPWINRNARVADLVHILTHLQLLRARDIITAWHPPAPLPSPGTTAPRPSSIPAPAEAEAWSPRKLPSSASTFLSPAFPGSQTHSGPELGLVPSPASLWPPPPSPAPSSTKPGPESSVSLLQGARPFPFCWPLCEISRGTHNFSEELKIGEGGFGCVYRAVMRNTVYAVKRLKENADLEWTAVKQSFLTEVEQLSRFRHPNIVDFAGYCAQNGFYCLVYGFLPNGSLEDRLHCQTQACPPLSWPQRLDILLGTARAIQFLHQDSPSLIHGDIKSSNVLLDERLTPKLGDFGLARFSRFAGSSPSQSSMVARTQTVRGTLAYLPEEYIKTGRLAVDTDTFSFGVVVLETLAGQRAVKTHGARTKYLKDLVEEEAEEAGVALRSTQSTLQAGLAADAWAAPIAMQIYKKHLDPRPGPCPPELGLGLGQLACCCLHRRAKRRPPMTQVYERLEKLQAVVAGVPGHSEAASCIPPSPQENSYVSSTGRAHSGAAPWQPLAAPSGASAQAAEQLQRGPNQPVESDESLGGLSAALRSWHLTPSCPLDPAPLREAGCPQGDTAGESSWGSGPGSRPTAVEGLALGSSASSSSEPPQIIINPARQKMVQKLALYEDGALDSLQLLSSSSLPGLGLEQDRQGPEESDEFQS

[8] = target: Tyrosine-protein kinase JAK2 (Homo sapiens) (UniProt O60674); experiment: Inhibition of human JAK2 (808 to end residues) assessed as residual activity at 1 uM using KTFCGTPEYLAPEVRREPRILSEEEQEMFRDFDYIADWC as substrate after 40 mins by [gamma-33ATP] radiometric assay relative to control
[9] = target: Serine/threonine-protein kinase Nek9 (Homo sapiens) (UniProt Q8TD19); experiment: Inhibition of recombinant human NEK9 (1 to 324 residues) assessed as residual activity at 1 uM using myelin basic protein as substrate measured after 40 mins in presence of [gamma33P]ATP by scintillation counting method relative to control
[10] = test system: Platelet-derived growth factor receptor alpha (Homo sapiens), P16234 [D842V]; experiment: Inhibition of human PDGFRalpha D842V mutant (550 to end residues) assessed as residual activity at 1 uM using GGMEDIYFEFMGGKKK as substrate measured after 40 mins in presence of [gamma33P]ATP by scintillation counting method relative to control
Platelet-derived growth factor receptor alpha (Homo sapiens), P16234 [D842V], sequence (P16234 whole entry D842V): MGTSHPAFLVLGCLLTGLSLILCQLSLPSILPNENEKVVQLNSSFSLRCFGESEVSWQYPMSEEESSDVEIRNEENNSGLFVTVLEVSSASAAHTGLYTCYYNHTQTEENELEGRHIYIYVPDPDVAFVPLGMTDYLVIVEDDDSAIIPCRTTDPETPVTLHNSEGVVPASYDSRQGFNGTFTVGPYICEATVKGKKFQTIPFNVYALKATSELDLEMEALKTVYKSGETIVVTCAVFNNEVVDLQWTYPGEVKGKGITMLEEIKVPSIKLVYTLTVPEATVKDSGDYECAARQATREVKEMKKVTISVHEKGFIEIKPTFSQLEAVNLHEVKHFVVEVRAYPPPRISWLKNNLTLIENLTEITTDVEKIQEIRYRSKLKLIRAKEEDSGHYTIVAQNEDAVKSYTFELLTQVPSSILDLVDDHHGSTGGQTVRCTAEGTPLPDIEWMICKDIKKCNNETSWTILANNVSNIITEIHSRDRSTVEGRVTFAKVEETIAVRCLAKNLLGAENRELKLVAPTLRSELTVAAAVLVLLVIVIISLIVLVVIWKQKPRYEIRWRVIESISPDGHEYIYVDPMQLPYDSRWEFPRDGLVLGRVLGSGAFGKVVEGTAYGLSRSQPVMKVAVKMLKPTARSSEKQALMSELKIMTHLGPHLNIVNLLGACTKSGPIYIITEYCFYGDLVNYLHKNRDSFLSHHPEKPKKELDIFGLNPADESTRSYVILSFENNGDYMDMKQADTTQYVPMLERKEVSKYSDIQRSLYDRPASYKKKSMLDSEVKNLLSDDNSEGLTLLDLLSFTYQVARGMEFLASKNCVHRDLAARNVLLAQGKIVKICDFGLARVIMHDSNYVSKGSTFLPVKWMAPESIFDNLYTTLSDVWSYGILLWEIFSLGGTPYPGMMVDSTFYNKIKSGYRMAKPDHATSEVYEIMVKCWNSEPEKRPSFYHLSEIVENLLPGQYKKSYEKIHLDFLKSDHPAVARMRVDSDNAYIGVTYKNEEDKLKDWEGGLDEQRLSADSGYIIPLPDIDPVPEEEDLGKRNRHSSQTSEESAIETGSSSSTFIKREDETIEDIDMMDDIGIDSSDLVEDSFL

[11] = target: Protein kinase C gamma type (Homo sapiens) (UniProt P05129); experiment: Inhibition of recombinant full-length human PKCgamma assessed as residual activity at 1 uM using histone H1 as substrate measured after 40 mins in presence of [gamma33P]ATP by scintillation counting method relative to control
[12] = target: Protein kinase C delta type (Homo sapiens) (UniProt Q05655); experiment: Inhibition of recombinant human PKCdelta (2 to end residues) assessed as residual activity at 1 uM using ERMRPRKRQGSVRRRV as substrate measured after 40 mins in presence of [gamma33P]ATP by scintillation counting method relative to control
[13] = target: Serine/threonine-protein kinase N2 (Homo sapiens) (UniProt Q16513); experiment: Inhibition of recombinant human PRK2 (501 to end residues) assessed as residual activity at 1 uM using AKRRRLSSLRA as substrate measured after 40 mins in presence of [gamma33P]ATP by scintillation counting method relative to control
[14] = target: Serine/threonine-protein kinase PRP4 homolog (Homo sapiens) (UniProt Q13523); experiment: Inhibition of recombinant human PRP4 (663 to end residues) assessed as residual activity at 1 uM using casein as substrate measured after 40 mins in presence of [gamma33P]ATP by scintillation counting method relative to control
[15] = test system: Proto-oncogene tyrosine-protein kinase receptor Ret (Homo sapiens), P07949 [V804L]; experiment: Inhibition of recombinant human Ret V804L mutant (658 to end residues) assessed as residual activity at 1 uM using KKKSPGEYVNIEFG as substrate measured after 40 mins in presence of [gamma33P]ATP by scintillation counting method relative to control
Proto-oncogene tyrosine-protein kinase receptor Ret (Homo sapiens), P07949 [V804L], sequence (P07949 whole entry V804L): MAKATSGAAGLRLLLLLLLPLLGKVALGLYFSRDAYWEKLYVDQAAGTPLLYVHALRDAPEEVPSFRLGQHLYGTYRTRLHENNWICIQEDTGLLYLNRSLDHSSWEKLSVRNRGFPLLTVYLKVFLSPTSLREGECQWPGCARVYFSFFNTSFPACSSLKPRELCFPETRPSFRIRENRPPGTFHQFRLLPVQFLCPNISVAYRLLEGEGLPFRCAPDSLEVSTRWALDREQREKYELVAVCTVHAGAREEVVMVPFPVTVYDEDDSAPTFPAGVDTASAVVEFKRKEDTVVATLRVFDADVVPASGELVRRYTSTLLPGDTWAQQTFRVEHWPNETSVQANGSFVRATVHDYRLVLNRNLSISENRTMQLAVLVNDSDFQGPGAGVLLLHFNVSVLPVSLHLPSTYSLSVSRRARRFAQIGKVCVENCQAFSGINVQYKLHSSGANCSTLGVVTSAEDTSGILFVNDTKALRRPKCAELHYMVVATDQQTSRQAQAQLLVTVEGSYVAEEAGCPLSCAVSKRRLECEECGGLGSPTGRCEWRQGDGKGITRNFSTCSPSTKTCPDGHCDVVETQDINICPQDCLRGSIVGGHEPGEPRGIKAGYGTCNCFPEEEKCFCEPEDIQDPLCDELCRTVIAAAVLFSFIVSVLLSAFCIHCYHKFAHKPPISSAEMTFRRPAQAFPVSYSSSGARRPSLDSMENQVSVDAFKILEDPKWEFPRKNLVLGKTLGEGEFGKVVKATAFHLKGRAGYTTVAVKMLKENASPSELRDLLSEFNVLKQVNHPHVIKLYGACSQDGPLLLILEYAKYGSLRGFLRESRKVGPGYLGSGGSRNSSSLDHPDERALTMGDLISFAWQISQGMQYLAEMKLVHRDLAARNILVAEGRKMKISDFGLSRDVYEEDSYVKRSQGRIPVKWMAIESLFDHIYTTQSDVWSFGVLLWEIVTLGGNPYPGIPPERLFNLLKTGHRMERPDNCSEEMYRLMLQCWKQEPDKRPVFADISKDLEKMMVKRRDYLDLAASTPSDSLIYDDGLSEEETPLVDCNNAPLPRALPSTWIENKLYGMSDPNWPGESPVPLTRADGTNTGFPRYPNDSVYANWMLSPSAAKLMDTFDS

[16] = target: Macrophage-stimulating protein receptor (Homo sapiens) (UniProt Q04912); experiment: Inhibition of recombinant human Ron (983 to end residues) assessed as residual activity at 1 uM using GGMEDIYFEFMGGKKK as substrate measured after 40 mins in presence of [gamma33P]ATP by scintillation counting method relative to control
[17] = target: TGF-beta receptor type-2 (Homo sapiens) (UniProt P37173); experiment: Inhibition of human TGFBR2 (188 to end residues) assessed as residual activity at 1 uM using myelin basic protein as substrate measured after 120 mins in presence of [gamma33P]ATP by scintillation counting method relative to control
[18] = target: Non-receptor tyrosine-protein kinase TYK2 (Homo sapiens) (UniProt P29597); experiment: Inhibition of human TYK2 (875 to end residues) assessed as residual activity at 1 uM using GGMEDIYFEFMGGKKK as substrate measured after 40 mins in presence of [gamma33P]ATP by scintillation counting method relative to control
[19] = target: Serine/threonine-protein kinase ULK2 (Homo sapiens) (UniProt Q8IYT8); experiment: Inhibition of human ULK2 (1 to 306 residues) assessed as residual activity at 1 uM using casein as substrate measured after 40 mins in presence of [gamma33P]ATP by scintillation counting method relative to control
Serine/threonine-protein kinase ULK2 (Homo sapiens), sequence (Q8IYT8 whole entry, the tested form may be a part): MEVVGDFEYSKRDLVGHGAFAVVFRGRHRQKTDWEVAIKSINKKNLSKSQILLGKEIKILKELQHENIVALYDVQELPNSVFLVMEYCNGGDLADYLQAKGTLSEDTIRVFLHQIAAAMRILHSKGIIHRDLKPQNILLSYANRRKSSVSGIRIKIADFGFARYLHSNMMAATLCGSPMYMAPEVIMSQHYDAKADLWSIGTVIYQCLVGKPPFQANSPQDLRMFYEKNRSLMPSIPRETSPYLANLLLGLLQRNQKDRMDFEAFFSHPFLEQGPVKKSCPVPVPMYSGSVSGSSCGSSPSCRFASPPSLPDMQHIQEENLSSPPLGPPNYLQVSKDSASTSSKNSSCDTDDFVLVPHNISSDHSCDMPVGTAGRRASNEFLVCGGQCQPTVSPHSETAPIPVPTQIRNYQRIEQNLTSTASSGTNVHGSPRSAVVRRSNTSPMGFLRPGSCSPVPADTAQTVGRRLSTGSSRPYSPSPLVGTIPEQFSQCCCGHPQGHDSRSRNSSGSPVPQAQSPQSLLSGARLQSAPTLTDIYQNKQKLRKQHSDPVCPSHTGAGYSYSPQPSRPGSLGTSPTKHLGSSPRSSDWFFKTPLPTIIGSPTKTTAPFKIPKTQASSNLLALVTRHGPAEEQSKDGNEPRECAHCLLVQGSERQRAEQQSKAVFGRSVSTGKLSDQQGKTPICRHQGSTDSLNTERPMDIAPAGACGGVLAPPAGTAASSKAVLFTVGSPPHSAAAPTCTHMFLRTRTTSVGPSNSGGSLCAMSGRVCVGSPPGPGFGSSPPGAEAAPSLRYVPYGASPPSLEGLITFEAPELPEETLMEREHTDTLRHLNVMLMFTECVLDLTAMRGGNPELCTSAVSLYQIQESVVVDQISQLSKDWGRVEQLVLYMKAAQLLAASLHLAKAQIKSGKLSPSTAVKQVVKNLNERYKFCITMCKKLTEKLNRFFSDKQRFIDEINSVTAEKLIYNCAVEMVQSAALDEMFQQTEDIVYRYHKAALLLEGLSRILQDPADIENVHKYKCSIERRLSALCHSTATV

[20] = target: Serine-protein kinase ATM (Homo sapiens) (UniProt Q13315); experiment: Inhibition of recombinant full-length human ATM at 1 uM assessed as residual activity at 1 uM using GST-cMyc-p53 as substrate measured after 40 mins by ELISA
Homo sapiens [21] = organism: Homo sapiens; experiment: Inhibition of recombinant full-length human ATRIP/ATR M211T mutant at 1 uM assessed as residual activity at 1 uM using GST-cMyc-p53 as substrate measured after 40 mins by fluorescence assay
[22] = test system: PI3-kinase p110-alpha/p85-alpha (Homo sapiens), P27986+P42336 [E542K]; experiment: Inhibition of recombinant full-length human PI3K p110alpha E542K mutant/p85alpha assessed as residual activity at 1 uM assessed as residual activity at 1 uM using phosphatidylinositol-4, 5-bisphosphate as substrate incubated for 40 mins in presence of [gamma33P]ATP by scintillation counting based radiometry assay relative to control; assay type: protein-complex assay

N=C1NC(=O)/C(=C\c2ccc(-c3cccc([N+](=O)[O-])c3)o2)S1
Activity (Homo sapiens [1]): 42% | Activity [2]: 93% | Activity [3]: 92% | Activity [4]: 92% | Activity [5]: 102% | Activity [6]: 99% | Activity [7]: 100% | Activity [8]: 102% | Activity [9]: 103% | Activity [10]: 97% | Activity [11]: 105% | Activity [12]: 103% | Activity [13]: 95% | Activity [14]: 86% | Activity [15]: 97% | Activity [16]: 104% | Activity [17]: 61% | Activity [18]: 107% | Activity [19]: 102% | Activity [20]: 102% | Activity (Homo sapiens [21]): 111% | Activity [22]: 99%

C=CCOC(=O)c1cc(-c2ccc(/C=C3/NC(=S)NC3=O)o2)ccc1Cl
Activity (Homo sapiens [1]): 71% | Activity [2]: 101% | Activity [3]: 84% | Activity [4]: 94% | Activity [5]: 96% | Activity [6]: 91% | Activity [7]: 90% | Activity [8]: 108% | Activity [9]: 101% | Activity [10]: 100% | Activity [11]: 104% | Activity [12]: 96% | Activity [13]: 107% | Activity [14]: 92% | Activity [15]: 98% | Activity [16]: 106% | Activity [17]: 90% | Activity [18]: 94% | Activity [19]: 103% | Activity [20]: 100% | Activity (Homo sapiens [21]): 102% | Activity [22]: 91%

Reference: ChEMBL document CHEMBL4334438, “Discovery of novel glycogen synthase kinase-3α inhibitors: Structure-based virtual screening, preliminary SAR and biological evaluation for treatment of acute myeloid leukemia” (Eur J Med Chem, 2019)
